Source: patent US7517873B2, “Substituted pyrimidodiazepines” (Hoffman-La Roche Inc., priority 2007, dated 2009)

Each compound was assayed against T1, GST-PLK1 (Homo sapiens, UniProt P53350) (assay: Biochemical Characterization Assay: GST-PLK1 kinase HTRF assay with GST-p53 substrate). Settings: full-length GST-PLK1, GST-p53 and ATP, 37° C. for 35 minutes, HTRF signal.
T1 construct: Full-length, active GST-PLK1 is purified from Sf9 insect cells; made in house; host or cells: Sf9 insect cells
Method: Biochemical Characterization Assay
Full-length, active GST-PLK1 is purified from Sf9 insect cells, and full-length GST-p53 is purified from E. coli. Anti-phospho p53 antibody is from Cell Signaling Technology. Europium-conjugated anti-rabbit antibody is from PerkinElmer Life and Analytical Sciences. APC-conjugated anti-GST antibody is from Prozyme.
To assay compounds of the invention, two microliters of test compound (0.6 nM-4 mM) in DMSO or plain DMSO for control wells, 38 microliters of 20 mM HEPES pH 7, 50 mM NaCl, 10 mM MgCl2, 0.5 mM TCEP, 0.1 mM sodium orthovanadate, 0.1 mg/mL BSA, and 0.05% Triton X-100 (Kinase Assay Buffer) are added. […] Six microliters of GST-PLK1 (3 ug/mL) in Kinase Assay Buffer are then added and the solution incubated at 37° C. for 35 minutes. Six microliters of solution containing 43 mM EDTA to stop the reaction and a 1:600 dilution of anti-phospho-p53 antibody in 20 mM HEPES pH 7, 50 mM NaCl, and 0.5 mg/mL BSA (Antibody Binding Buffer) are added and the solution incubated at 37° C. for 30 minutes. […] The HTRF signal is read on an Envision reader from PerkinElmer Life and Analytical Sciences.

T1 sequence (P53350 whole entry): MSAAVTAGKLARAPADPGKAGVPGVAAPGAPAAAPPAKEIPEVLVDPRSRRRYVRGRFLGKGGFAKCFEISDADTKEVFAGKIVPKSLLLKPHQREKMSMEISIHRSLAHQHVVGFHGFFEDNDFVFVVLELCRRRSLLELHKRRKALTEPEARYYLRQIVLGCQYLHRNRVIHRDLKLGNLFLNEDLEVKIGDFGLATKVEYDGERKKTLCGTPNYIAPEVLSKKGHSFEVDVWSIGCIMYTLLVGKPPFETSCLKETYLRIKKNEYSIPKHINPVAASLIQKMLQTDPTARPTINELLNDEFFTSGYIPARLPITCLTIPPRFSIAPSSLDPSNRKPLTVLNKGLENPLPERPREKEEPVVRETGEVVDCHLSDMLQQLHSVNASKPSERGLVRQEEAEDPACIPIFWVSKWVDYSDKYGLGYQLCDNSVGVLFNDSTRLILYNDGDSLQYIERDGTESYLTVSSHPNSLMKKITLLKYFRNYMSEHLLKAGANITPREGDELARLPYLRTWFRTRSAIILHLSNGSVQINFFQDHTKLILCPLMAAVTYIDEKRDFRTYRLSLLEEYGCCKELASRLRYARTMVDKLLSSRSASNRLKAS

Compound	IC50 [nM]
CC1CN(C2CCCC2)c2nc(Nc3cccc(C(=O)Nc4ccncc4)c3)ncc2N(C)C1=O (racemic) [I-92, (rac)-3-(9-Cyclopentyl-5,7-dimethyl-6-oxo-6,7,8,9-tetrahydro-5H-pyrimido[4,5-b][1,4]diazepin-2-ylamino)-N-pyridin-4-yl-benzamide]	> 5000
CC1CN(C2CCCC2)c2nc(Nc3ccc(O)c(NC(=O)c4cccnc4)c3)ncc2N(C)C1=O (racemic) [I-47, (rac)-N-[5-(9-Cyclopentyl-5,7-dimethyl-6-oxo-6,7,8,9-tetrahydro-5H-pyrimido[4,5-b][1,4]diazepin-2-ylamino)-2-hydroxy-phenyl]-nicotinamide]	500 to 5000
COc1cc(C(=O)NC2CCN(C)CC2)ccc1Nc1ncc2c(n1)N(C1CCCC1)C[C@@H](C)C(=O)N2C [I-2a, 7R-4-(9-Cyclopentyl-5,7-dimethyl-6-oxo-6,7,8,9-tetrahydro-5H-pyrimido[4,5-b][1,4]diazepin-2-ylamino)-3-methoxy-N-(1-methyl-piperidin-4-yl)-benzamide]	< 500
CCN1CCC(NC(=O)c2cccc(Nc3ncc4c(n3)N(C3CCCC3)CC(C)C(=O)N4C)c2)CC1 (racemic) [I-89, (rac)-3-(9-Cyclopentyl-5,7-dimethyl-6-oxo-6,7,8,9-tetrahydro-5H-pyrimido[4,5-b][1,4]diazepin-2-ylamino)-N-(1-ethyl-piperidin-4-yl)-benzamide]	500 to 5000
COc1cc(C(=O)NN)ccc1Nc1ncc2c(n1)N(C1CCCC1)CC(C)C(=O)N2C (racemic) [I-79, (rac)-4-(9-Cyclopentyl-5,7-dimethyl-6-oxo-6,7,8,9-tetrahydro-5H-pyrimido[4,5-b][1,4]diazepin-2-ylamino)-3-methoxy-benzoic acid hydrazide]	< 500
COc1ccc(NC(=O)c2ccccc2)cc1Nc1ncc2c(n1)N(C1CCCC1)CC(C)C(=O)N2C (racemic) [I-78, (rac)-N-[3-(9-Cyclopentyl-5,7-dimethyl-6-oxo-6,7,8,9-tetrahydro-5H-pyrimido[4,5-b][1,4]diazepin-2-ylamino)-4-methoxy-phenyl]-benzamide]	500 to 5000
COc1cc(C(=O)NC2CCN(C)CC2)ccc1Nc1ncc2c(n1)N(C1CCCC1)CC(C)C(=O)N2C (racemic) [I-2, (rac)-4-(9-Cyclopentyl-5,7-dimethyl-6-oxo-6,7,8,9-tetrahydro-5H-pyrimido[4,5-b][1,4]diazepin-2-ylamino)-3-methoxy-N-(1-methyl-piperidin-4-yl)-benzamide]	< 500
COc1cc(C(=O)NC2CCN(C)CC2)ccc1Nc1ncc2c(n1)N(C1CCCCC1)CC(C)C(=O)N2C (racemic) [I-19, (rac)-4-(9-Cyclohexyl-5,7-dimethyl-6-oxo-6,7,8,9-tetrahydro-5H-pyrimido[4,5-b][1,4]diazepin-2-ylamino)-3-methoxy-N-(1-methyl-piperidin-4-yl)-benzamide]	< 500
CCCCN1CCC(=O)N(C)c2cnc(Nc3ccc(C(=O)NC4CCN(C)CC4)cc3OC)nc21 [I-44, 4-(9-Butyl-5-methyl-6-oxo-6,7,8,9-tetrahydro-5H-pyrimido[4,5-b][1,4]diazepin-2-ylamino)-3-methoxy-N-(1-methyl-piperidin-4-yl)-benzamide]	< 500
CCC1CN(C2CCCC2)c2nc(Nc3ccc(C(=O)NC4CCN(C)CC4)cc3OC)ncc2N(C)C1=O (racemic) [I-13, (rac)-4-(9-Cyclopentyl-7-ethyl-5-methyl-6-oxo-6,7,8,9-tetrahydro-5H-pyrimido[4,5-b][1,4]diazepin-2-ylamino)-3-methoxy-N-(1-methyl-piperidin-4-yl)-benzamide]	< 500
CCCC1CN(C2CCCC2)c2nc(Nc3ccc(C(=O)NC4CCN(C)CC4)cc3OC)ncc2N(C)C1=O (racemic) [I-17, (rac)-4-(9-Cyclopentyl-5-methyl-6-oxo-7-propyl-6,7,8,9-tetrahydro-5H-pyrimido[4,5-b][1,4]diazepin-2-ylamino)-3-methoxy-N-(1-methyl-piperidin-4-yl)-benzamide]	500 to 5000
CN1CCC(NC(=O)c2ccc(Nc3ncc4c(n3)N(C3CCCC3)CC(C)(C)C(=O)N4C)cc2)CC1 [I-50, 4-(9-Cyclopentyl-5,7,7-trimethyl-6-oxo-6,7,8,9-tetrahydro-5H-pyrimido[4,5-b][1,4]diazepin-2-ylamino)-N-(1-methyl-piperidin-4-yl)-benzamide]	< 500
COc1cc(C(=O)N(C)C)ccc1Nc1ncc2c(n1)N(C1CCC1)CCC(=O)N2C [I-35, 4-(9-Cyclobutyl-5-methyl-6-oxo-6,7,8,9-tetrahydro-5H-pyrimido[4,5-b][1,4]diazepin-2-ylamino)-3-methoxy-N,N-dimethyl-benzamide]	> 5000
CCN1CCC(NC(=O)c2ccc(Nc3ncc4c(n3)N(C3CCCC3)CC(C)C(=O)N4C)cc2Cl)CC1 (racemic) [I-81, (rac)-2-Chloro-4-(9-cyclopentyl-5,7-dimethyl-6-oxo-6,7,8,9-tetrahydro-5H-pyrimido[4,5-b][1,4]diazepin-2-ylamino)-N-(1-ethyl-piperidin-4-yl)-benzamide]	500 to 5000
COc1cc(C(=O)NC2CCN(C)CC2)ccc1Nc1ncc2c(n1)N(CCC(C)C)CC(C)C(=O)N2C (racemic) [I-27, (rac)-4-[5,7-Dimethyl-9-(3-methyl-butyl)-6-oxo-6,7,8,9-tetrahydro-5H-pyrimido[4,5-b][1,4]diazepin-2-ylamino]-3-methoxy-N-(1-methyl-piperidin-4-yl)-benzamide]	500 to 5000
COc1cc(C(=O)NC2CCN(C)CC2)ccc1Nc1ncc2c(n1)N(C1CCCC1C)CCC(=O)N2C (racemic) [I-57, (rac)-3-Methoxy-4-[5-methyl-9-(2-methyl-cyclopentyl)-6-oxo-6,7,8,9-tetrahydro-5H-pyrimido[4,5-b][1,4]diazepin-2-ylamino]-N-(1-methyl-piperidin-4-yl)-benzamide]	< 500
CC1CN(C2CCCC2)c2nc(Nc3cccc(C(=O)NCCCN(C)C)c3)ncc2N(C)C1=O (racemic) [I-70, (rac)-3-(9-Cyclopentyl-5,7-dimethyl-6-oxo-6,7,8,9-tetrahydro-5H-pyrimido[4,5-b][1,4]diazepin-2-ylamino)-N-(3-dimethylamino-propyl)-benzamide]	500 to 5000
COc1cc(C(=O)NC2CCN(C)CC2)ccc1Nc1ncc2c(n1)N(C1CCCC1)CC1(CC1)C(=O)N2C [I-54, 4-[(9-Cyclopentyl-6,7,8,9-tetrahydro-5-methyl-6-oxospiro[5H-pyrimido[4,5-b][1,4]diazepine-7,1′-cyclopropan]-2-yl)amino]-3-methoxy-N-(1-methyl-4-piperidinyl)benzamide]	< 500
COc1cc(C(=O)NC2CCOCC2)ccc1Nc1ncc2c(n1)N(C1CCCCC1)CCC(=O)N2 [I-33, 4-(9-Cyclohexyl-6-oxo-6,7,8,9-tetrahydro-5H-pyrimido[4,5-b][1,4]diazepin-2-ylamino)-3-methoxy-N-(tetrahydro-pyran-4-yl)-benzamide]	> 5000
COc1cc(C(=O)NC2CCN(C)CC2)ccc1Nc1ncc2c(n1)N(C(C)C)CCC(=O)N2C [I-43, 4-(9-Isopropyl-5-methyl-6-oxo-6,7,8,9-tetrahydro-5H-pyrimido[4,5-b][1,4]diazepin-2-ylamino)-3-methoxy-N-(1-methyl-piperidin-4-yl)-benzamide]	< 500
